From patent US10647680B2, “Urea compound, preparation method therefor and medical use thereof” (Ancureall Pharmaceutical (Shanghai) Co., Ltd., priority 2016, dated 2020)

Columns and labels:
[1] = tested on: MV4-11 (FLT3 ITD+/+ mutant type); test: In vitro growth inhibition (GI50), MV4-11; assay type: cell-based, human; details: Homo sapiens, MV4-11; Cell lines of leukemia; read-out: GI 50 MV4-11 FLT3 (ITD +/+)
Source text: (§1) 1. Cell Lines and Cell Cultures
(§2) Tumor cell line is an effective cell model for studying the inhibition of tumor cell growth or proliferation in vitro. In the present invention, a representative tumor cell line was selected to determine the cell growth inhibition activity of the present compound. All cell lines used were from ATCC, DSMZ, and the Cell Bank of the Chinese Academy of Sciences. Cell culture conditions and methods were in accordance with the requirements of each cell line. Cells were subcultured in vitro for no more than 3 passages each time, and as required, single-clone purification and identification of cell lines could be carried out.
(§3) The cell culture media used were RPMI1640 (Gibco), MEM (Gibco), McCOY'S5A (Gibco), and IMDM (Gibco). The complete medium was prepared by supplement with 5˜20% fetal calf serum (Gibco), 1% double-antibiotics (10000 units/mL penicillin and 10000 units/mL), 2 mM glutamine or 1 mM sodium pyruvate, respectively.
(§4) The human acute […] monomonocyte leukemia cell line MV4-11 (FLT3 ITD+/+ mutant type, ATCC) was cultured in a complete medium comprising 1×IMDM and 10% FBS. Human acute myeloid leukemia cell line MOLM-13 (FLT3 ITD+/− mutant type, DSMZ), human acute lymphoblastic leukemia cell line RS4; 11 (FLT3 wild type, ATCC), human chronic granulocytic leukemia cell line K562 (FLT3 negative expression, positive expression of BCR-ABL fusion protein, ATCC), human promyelocytic leukemia cell line HL-60 (FLT3 wild type, ATCC), human B lymphoblastic leukemia cell line RAMOS (positive expression of Brutons tyrosine protein kinase, ATCC), human acute myeloid leukemia cell line Kasumi-1 (c-Kit N822K mutant type, ATCC), human acute monocytic leukemia cell line U937 (FLT3 wild-type, ATCC), human acute myeloid leukemia cell line OCI-AML3 (NPMc+ mutant type, ATCC), human acute myeloid leukemia cell line KG-1 (expressing FGFR1OP2-FGFR1 fusion protein, ATCC) were cultured in a complete medium comprising 1×RPMI1640 and 10% FBS, respectively.
(§5) The suspension cells were collected by centrifugation. The supernatant was discarded and the cell pellet was resuspended and counted. Different cell concentrations (5˜10×10^4 cells/mL) were prepared according to the growth cycle of each cell line and then seeded on a 96-well plate (Corning), 100 μL/well. The cells were incubated overnight at 37° C., 5% CO2. The compounds were added to the cells on the second day with 2 wells in parallel. The final concentration of organic solvent shall not exceed 1%. The cells were continually incubated for 3 to 5 days, and then subjected to MTT assay.
(§6) The compound was stored in a concentration of 10 mM at −20° C. and diluted to 2- or 10-fold series prior to use.
(§7) Dojindo CCK8 reagent kit was used as MTT assay. […] FC meter was used as microplate reader.
(§8) For adherent cells, culture medium was removed and immediately replaced with the fresh prepared medium which contains 10% CCK8 reagent (100 μL/well). For the suspension cells, CCK8 was directly added to 10% of the final concentration. The cells were continually incubated for 1˜4 h. […] The experiment was independently repeated 1˜3 times, and subject to biological statistical analysis. 4. Experimental Results
(§9) The initial concentration of the compound was 5,000 nM, then it was serially diluted by 2-fold or 10-fold to 0.01 nM. The GI50 value of each test compound was calculated according to the GI50 assay and calculation method. The experiments were repeated 1 to 3 times, and data were subjected to biological statistical analysis.

[2] = tested on: MOLM-13 (FLT3 ITD+/− mutant type); test: In vitro growth inhibition (GI50), MOLM-13; assay type: cell-based, human; details: Homo sapiens, MOLM-13; Cell lines of leukemia; read-out: GI 50 MOLM-13 FLT3 (ITD+/−)
Source text: as §1, §2, §3, §4, §5, §6, §7, §8, §9

RS4; 11 (FLT3 wild type) = test: In vitro growth inhibition (GI50), RS4; 11; assay type: cell-based, human; details: Homo sapiens, RS4-11; Cell lines of leukemia; read-out: GI 50 RS4: 11 FLT3 (WT)
Source text: as §1, §2, §3, §4, §5, §6, §7, §8, §9

[3] = tested on: K562 (FLT3 negative expression, positive expression of BCR-ABL fusion protein); test: In vitro growth inhibition (GI50), K562; assay type: cell-based; details: Homo sapiens, Cell lines of leukemia, read-out: GI 50 K562 BCR-ABL
Source text: as §1, §2, §3, §4, §5, §6, §7, §8, §9

[4] = tested on: RAMOS (positive expression of Brutons tyrosine protein kinase); test: In vitro growth inhibition (GI50), RAMOS; assay type: cell-based; details: Homo sapiens, Cell lines of leukemia, read-out: GI 50 Ramos BTK
Source text: as §1, §2, §3, §4, §5, §6, §7, §8, §9

U937 (FLT3 wild-type) = test: In vitro growth inhibition (GI50), U937; assay type: cell-based; details: Homo sapiens, U-937; Cell lines of leukemia; read-out: GI 50 U937 FLT 3(WT)
Source text: as §1, §2, §3, §4, §5, §6, §7, §8, §9

[5] = tested on: Kasumi-1 (c-Kit N822K mutant type); test: In vitro growth inhibition (GI50), Kasumi-1; assay type: cell-based; details: Homo sapiens, Cell lines of leukemia, read-out: GI 50 Kasumi-1 Kit (N822K)
Source text: as §1, §2, §3, §4
as §5, with “Adherent cells were digested with 0.25% pancreatin-EDTA (Gibco). The suspension” for “The suspension”
(§10) The compound of the present invention and the control compound were dissolved in DMSO (Sigma) respectively, with the purity of more than 98%. The compound was stored in a concentration of 10 mM at −20° C. and diluted to 2- or 10-fold series prior to use.
(§11) Dojindo CCK8 reagent kit was used as MTT assay. THERMO […] FC meter was used as microplate reader.
(§12) For adherent cells, culture medium was removed and immediately replaced with the fresh prepared medium which contains 10% CCK8 reagent (100 μL/well). For the suspension cells, CCK8 was directly added to 10% of the final concentration. The cells were continually incubated for 1˜4 h. When a dark yellow color could be observed in the solvent control wells, the absorbance value at OD450 nm was measured and the cell growth rate was calculated according to the following formula: Cell Growth Rate (%)=100*(T−T0)/(C−T0) T=optical density of drug treatment cell well—optical density of blank control well; T0=optical density of cell well before drug treatment—optical density of blank control well; C=optical density of cell well of solvent control group—optical density of blank control well. The concentration value of 50% inhibition of cell growth (GI50) was calculated according to the drug concentration and cell growth rate curve. […]

[6] = tested on: KG-1 (expressing FGFR1OP2-FGFR1 fusion protein); test: In vitro growth inhibition (GI50), KG-1; assay type: cell-based; details: Homo sapiens; Cell lines of leukemia; read-out: GI 50 KG-1 FGFR1OP 2-FGFR1
Source text: as §1, §2, §3, §4, §5, §6, §7, §8, §9

HL-60 (FLT3 wild type) = test: In vitro growth inhibition (GI50), HL-60; assay type: cell-based; details: Homo sapiens, Cell lines of leukemia, read-out: GI 50 HL60 FLT3 (WT)
Source text: as §1, §2, §3, §4
as §5, with “Adherent cells were digested with 0.25% pancreatin-EDTA (Gibco). The suspension” for “The suspension”
as §10, §11, §12

[7] = tested on: OCI-AML3 (NPMc+ mutant type); test: In vitro growth inhibition (GI50), OCI-AML3; assay type: cell-based; details: Homo sapiens, OCI-AML-3; Cell lines of leukemia; read-out: GI 50 OCI- AML3 NPMc+
Source text: as §1, §2, §3, §4, §5, §6, §7, §8, §9

| Structure (SMILES) | GI50 [1] [nM] | GI50 [2] [nM] | GI50 (RS4; 11 (FLT3 wild type)) [nM] | GI50 [3] [nM] | GI50 [4] [nM] | GI50 (U937 (FLT3 wild-type)) [nM] | GI50 (HL-60 (FLT3 wild type)) [nM] | GI50 [7] [nM] | GI50 [5] [nM] | GI50 [6] [nM] |
| --- | --- | --- | --- | --- | --- | --- | --- | --- | --- | --- |
| CC(C)(C)c1cc(NC(=O)Nc2ccc(-n3cnc4ccccc43)c(F)c2)no1 [Compound 39, 1-(4-benzimidazol-1-yl-3-fluoro-phenyl)-3-(5-tert-butyl-isoxazol-3-yl)-urea] | 100 to 1000 | 100 to 1000 | > 1000 | > 1000 | > 1000 | > 1000 | > 1000 | > 1000 | > 1000 | > 1000 |
| Cc1csc(NC(=O)Nc2ccc(-n3cnc4ccccc43)cc2)n1 [Compound 61, 1-(4-benzimidazol-1-yl-phenyl)-3-(4-methyl-thiazol-2-yl)-urea] | > 1000 | > 1000 | > 1000 | > 1000 | > 1000 | > 1000 | > 1000 | > 1000 | > 1000 | > 1000 |
| CC(C)c1cc(NC(=O)Nc2ccc(-n3cnc4ccccc43)cc2)on1 [Compound 132, 1-(4-benzimidazol-1-yl-phenyl)-3-(3-isopropyl-isoxazol-5-yl)-urea] | 10 to 100 | 10 to 100 | > 1000 | > 1000 | > 1000 | > 1000 | > 1000 | 100 to 1000 | > 1000 | > 1000 |
| CN1CCN(c2ccc3ncn(-c4ccc(NC(=O)Nc5cc(C(C)(C)C)on5)cc4)c3c2)CC1 [Compound 29, 1-(5-tert-butyl-isoxazol-3-yl)-3-{4-[6-(4-methyl-piperazin-1-yl)-benzimidazol-1-yl]-phenyl}-urea] | 10 to 100 | 10 to 100 | > 1000 | > 1000 | > 1000 | > 1000 | > 1000 | > 1000 | > 1000 | > 1000 |
| CCOC(=O)COc1ccc2c(c1)ncn2-c1ccc(NC(=O)Nc2cc(C(C)(C)C)n[nH]2)cc1 [Compound 88, ethyl (1-{4-[3-(5-tert-butyl-2H-pyrazol-3-yl)-carbamido]-phenyl}-H-benzimidazol-5-yloxy)-acetate] | 1 to 10 | 1 to 10 | > 1000 | > 1000 | > 1000 | > 1000 | > 1000 | > 1000 | > 1000 | > 1000 |

Further lines, with some results ahead:

| GI50 [1] [nM] | GI50 [2] [nM] | GI50 (RS4; 11 (FLT3 wild type)) [nM] | GI50 [3] [nM] | GI50 [4] [nM] | GI50 (U937 (FLT3 wild-type)) [nM] | GI50 (HL-60 (FLT3 wild type)) [nM] | GI50 [7] [nM] | Structure (SMILES) | GI50 [5] [nM] | GI50 [6] [nM] |
| --- | --- | --- | --- | --- | --- | --- | --- | --- | --- | --- |
| 0.1 to 1 | 0.1 to 1 | > 1000 | > 1000 | > 1000 | > 1000 | > 1000 | > 1000 | CC(C)(C)c1cc(NC(=O)Nc2ccc(-n3cnc4c(F)cccc43)cc2)no1 [Compound 34, 1-(5-tert-butyl-isoxazol-3-yl)-3-[4-(4-fluoro-benzimidazol-1-yl)-phenyl]-urea] | > 1000 | > 1000 |
| 0.1 to 1 | 0.1 to 1 | > 1000 | > 1000 | > 1000 | > 1000 | > 1000 | > 1000 | CCCCCCOc1ccc2c(c1)ncn2-c1ccc(NC(=O)Nc2cc(C(C)(C)C)on2)cc1 [Compound 7, 1-(5-tert-butyl-isoxazol-3-yl)-3-[4-(5-hexyloxyl-benzimidazol-1-yl)-phenyl]-urea] | > 1000 | > 1000 |
| 0.1 to 1 | 0.1 to 1 | 100 to 1000 | 100 to 1000 | 100 to 1000 | 100 to 1000 | 100 to 1000 | > 1000 | O=C(Nc1ccc(-n2cnc3ccccc32)cc1)Nc1cc(C(F)(F)F)n[nH]1 [Compound 67, 1-(4-benzimidazol-1-yl-phenyl)-3-(5-trifluoromethyl-2H-pyrazole-3-yl)-urea] | 100 to 1000 | 100 to 1000 |
| 0.1 to 1 | 0.1 to 1 | 10 to 100 | > 1000 | 100 to 1000 | 100 to 1000 | > 1000 | > 1000 | CN1CCN(CCCOc2ccc3c(c2)ncn3-c2ccc(NC(=O)Nc3cc(C(C)(C)C)n[nH]3)cc2)CC1 [Compound 92, 1-(5-tert-butyl-2H-pyrazol-3-yl)-3-(4-{5-[3-(4-methyl-piperazin-1-yl)-propoxyl]-benzimidazol-1-yl}-phenyl)-urea] | > 1000 | > 1000 |
| 0.1 to 1 | 0.1 to 1 | > 1000 | > 1000 | > 1000 | > 1000 | > 1000 | > 1000 | COCC(O)COc1ccc2c(c1)ncn2-c1ccc(NC(=O)Nc2cc(C(C)(C)C)n[nH]2)cc1 (centres unmarked) [Compound 80, 1-(5-tert-butyl-2H-pyrazol-3-yl)-3-{4-[5-(2-hydroxy-3-methoxyl-propoxyl)-benzimidazol-1-yl]-phenyl}-urea] | > 1000 | > 1000 |
| 0.1 to 1 | 0.1 to 1 | > 1000 | > 1000 | > 1000 | > 1000 | > 1000 | > 1000 | CCOCCOc1ccc2c(c1)ncn2-c1ccc(NC(=O)Nc2cc(C(C)(C)C)on2)cc1 [Compound 13, 1-(5-tert-butyl-isoxazol-3-yl)-3-{4-[5-(2-ethoxyl-ethoxyl)-benzimidazol-1-yl]-phenyl]-urea] | > 1000 | > 1000 |
